“Also recorded” adds a separate entry of the source.
Key:
[1] = tested on: translation of globin mRNA; test: Cell-free translation in eIF-4E-depleted rabbit reticulocyte lysates; type: biochemical
Procedure: Translational activity of eIF-4E variants: The ability of eIF-4E variants to initiate translation was examined in rabbit reticulocyte lysates which were depleted of endogenous eIF-4E by m^7GTP-Sepharose chromatography [Svitkin Y. V. et al. (1996) EMBO J. 15:7147-7155]. Western blotting analysis using anti-eIF-4E antibodies detected no eIF-4E in lysates after chromatography. […] The relative abilities of eIF-4E variants to restore globin mRNA translation were tested for all variants except W113A.
Cell-free translations: Nuclease-treated rabbit reticulocyte lysates (Promega) were depleted of endogenous eIF-4E by chromatography on m^7GTP-Sepharose according to the previously described protocol (Svitkin et al. 1996, supra). Aliquots of eIF-4E-depleted lysates were stored in liquid nitrogen vapor. eIF-4E depletion was verified by Western blotting analysis (data not shown). Cell-free translations were performed at 30° C. as described in detail in the Promega technical manual. […] In the case of L117A, which was not highly purified, a sufficient quantity of the preparation was added to approximate 75 ng of L117A. […] Dried filter papers were placed in vials with scintillation liquid and [^35S]methionine incorporated into protein was quantitated by liquid scintillation spectrometry.

eIF-4E = target: T1, eIF-4E (Homo sapiens, UniProt P06730); test: Photoaffinity labeling of eIF-4E with labeled GTP analog; type: binding; conditions: competition and saturation
T1 construct: made in house; host or cells: E. coli BL21(DE3), pET-3d
T1 sequence (P06730 whole entry): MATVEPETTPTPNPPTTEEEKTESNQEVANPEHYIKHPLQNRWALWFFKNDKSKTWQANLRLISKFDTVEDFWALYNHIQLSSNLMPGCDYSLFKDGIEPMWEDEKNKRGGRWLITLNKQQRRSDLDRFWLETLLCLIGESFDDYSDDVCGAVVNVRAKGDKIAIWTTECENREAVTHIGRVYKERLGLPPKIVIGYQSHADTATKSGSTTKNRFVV
Excerpt: Studies on the binding site of eIF-4E have defined a sequence of amino acids, involved in binding m^7G-RNA extending approximately from positions 112-123, numbering from the translation start site. The region of amino acids involved in the binding of eIF-4E to m^7G-RNA was identified using photoaffinity labeling with a labeled analog, [γ-^32P] 8-N3GTP. [Jayaram, B. et al. (1994) J. Biol. Chem. 269:3233-3242; Shoemaker, M. T. et al. (1993) J. Biol. Chem. 32:1883-1890; Salvucci, M. E. et al. (1992) Biochemistry 31:4479-4487]. […] The analog binding to eIF-4E was rendered irreversible by a photo-chemical reaction and a tryptic peptide bearing the analog label was isolated by aluminum-III chelate chromatography and reverse phase HPLC. Once the binding region peptide was identified, it was then possible to employ alanine-scanning mutations to determine the contribution of specific amino acid residues to the binding, and to generate modified eIF-4E proteins with altered binding affinities. Modified eIF-4E analog proteins having either increased or decreased binding affinities have been made. […] Enhanced binding affinity can lead to increased capped RNA stability and increased duration of expression. Decreased binding affinity can be of value where sensitivity to regulatory influences is desired. […]

[2] = target: m^7GTP (mRNA cap structure); test: Fluorescence quenching of intrinsic tryptophan of eIF-4E upon m^7GTP binding
Procedure: FIGS. 4A and 4B. […] The fluorescence intensity of recombinant human eIF-4E binding to m^7GTP as a function of m^7GTP concentration was measured. All solutions were prepared in buffer A at pH 7.6, 25° C. and the concentration of eIF-4E was 1 μM. An excitation wave length of 280 nm was used to monitor the fluorescence intensity at 330 nm.
Fluorescence measurements were made at 25° C. on a SPEX Fluorolog-T2 spectrofluorometer equipped with a high intensity (450 w) xenon arc lamp. An excitation wave length of 280 nm was used to monitor the tryptophan fluorescence emission of recombinant eIF-4E at 330 nm. Excitation and emission slit widths of 1.4 and 2.0 mm respectively were used and a 1.0 cm sample cell pathlength was employed. The buffer used for all fluorescence measurements was 20 mM HEPES at pH 7.6 and 1 mM DTT (designated Buffer A in FIG. 4). The steady state data were collected and analyzed as described previously [Carberry, S. E. et al. (1989) Biochemistry 28:8078-8083; Carberry, S. E. et al. (1990) Biochemistry 29:3337-3341. An excitation wavelength of 289 nm was used to monitor the tryptophan fluorescence emission of the proteins. Excitation and emission slit widths of 1.5 mm and 2.0 mm respectively were used and cell path length was 1.0 cm.
The preparation of large quantities of recombinant eIF-4E variants allowed us to directly determine the Kd of binding to the mRNA cap structure. Quantitation was performed by measuring the fluorescence quenching of intrinsic tryptophan residues in eIF-4E upon m^7GTP binding at 25≅ C. (Example 3). […] This is possibly a consequence of a lower stability of these variants at the higher temperature in the fluorescence quenching assay.

[3] = type: physicochemical, E. coli
Procedure: Purification was carried out essentially as described by Hagedorn, et al. (1997) Protein Expression and Purif. 9:53-60, which is incorporated herein by reference. BL21(DE3) cells expressing human eIF-4E were grown in M9ZB media with ampicillin to an OD600 of 0.6-0.7 at which time cultures were induced with 0.4 mM IPTG [Studier, F. W. et al. (1990) supra]. […] Culture media was centrifuged at 500×g for 15 min, and E. coli pellets were suspended in 3 ml of 50 mM Tris-HCl pH 8.0, 100 mM KCl, 1 mM EDTA, 1 mM DTT, 1 mM PMSF, and 0.1 mg/ml lysozyme per gram wet weight. Samples were stirred intermittently on ice for 15 min and sonicated. Triton X-100 was added to a final concentration of 0.1%. The samples were mixed for 15 min at 4° C. and centrifuged at 15,000 rpm in a Sorvall SS-34 rotor for 20 min. Supernatants were used as starting material for subsequent chromatography purification steps.
In order to assess the solubility of each variant, cells were lysed and centrifuged as described supra. Supernatants prepared from equivalent wet weights of cells were analyzed by SDS-PAGE and Western blotting with anti-eIF-4E antibodies. Supernatants from all variants contained soluble eIF-4E. […] Except for the W113A and L117A variants, no major differences in solubility were observed among the other alanine variants studied.

For Cn1c[n+]([C@@H]2O[C@H](COP(=O)(O)OP(=O)([O-])O)[C@@H](O)[C@H]2O)c2nc(N)[nH]c(=O)c21 [m^7GDP, reference compound], the “effect on eIF-4E-dependent translation” value ([1]; added to incubation containing wild-type eIF-4E) was “inhibited the eIF-4E-dependent translation”.

With [N-]=[N+]=Nc1nc2c(=O)[nH]c(N)nc2n1C1OC(COP(=O)(O)OP(=O)(O)O[32P](=O)(O)O)C(O)C1O (centres unmarked) [[γ-^32P] 8-N3GTP] the “binding of analog to eIF-4E” value (eIF-4E) was “bind to eIF-4E in competition with m^7GTP and with capped RNA; also recorded: the binding site was saturated by the analog”.

With “wild-type eIF-4E: purified recombinant human eukaryotic Initiation Factor 4E expressed in E. coli, non-phosphorylated” the Kd ([2]; Kd for m^7GTP, fluorescence quenching, 25 C, read-out: Binding constant Kd) was 140 nM, the equilibrium binding constant ([2]; binding to m^7GTP, pH 7.6 (20 mM HEPES buffer+1 mM DTT), 25° C.) was 10.1±0.3 ×10^5M^−1 and the “equilibrium binding constant relative to results obtained using native human eIF-4E” value ([2]; compared with Carberry 1989) was 1.5-2 times higher. For the same compound, the binding constant ([2]; in vitro, worded as binding to m^7G-RNA) was 10.1±0.3 ×10^5M^−1, the “increase in the translation of globin mRNA” value ([1]; addition to eIF-4E-depleted lysate) was 2-4 fold and the “fraction of eIF-4E expressed in E. coli that was soluble” value [3] was “Note: Approximately 1-5% of the eIF-4E expressed in E. coli was soluble as estimated by Coomassie blue staining of SDS-PAGE analyzed samples”.

Source: patent publication US6596854B2, “Isolated nucleic acid molecule encoding a variant human eukaryotic Intiation Factor 4E protein” (Emory University, priority 1996, dated 2003)
